The source of these data is patent US20110306554A1, “PEPTIDE CAPABLE OF BINDING TO IMMUNOGLOBULIN” (priority 2009, published 2011).

Test [1] has as its system Monoclonal antibody cocktail-induced arthritis mice. The test is described as follows: Arthritis suppressing effects on arthritis-induced mice, Part 2. It counts as in vivo. As to conditions: 10 mg/kg intraperitoneal twice a day, 14 consecutive days from day 0. As to the method:
Monoclonal antibody cocktail-induced arthritis mice were used to examine arthritis suppressing effects of peptides which are indicated as R1, R2, and R5 in Example 2. Arthritis was caused by intravenous administration of 2 mg/mouse of an arthritis-inducing monoclonal antibody cocktail and three days later, intraperitoneal administration of 50 μg/mouse of LPS. The peptides were administered at a dose of 10 mg/kg twice a day for a period of 14 consecutive days from the day of administration of the arthritis-inducing monoclonal antibody cocktail (day 0), and arthritis suppressing effect was examined in terms of clinical score. Experiments were carried out in a similar way to those in the section (1) in Example 3.
The required amount was calculated for each peptide, based on the animal weight. Each peptide solution was prepared to make a concentration of 1 mg/ml in a 0.5% methyl cellulose solution, and the prepared peptide solution was cold stored.
Measurement of body weight of animals was made on days 0, 3, 6, 9, 12, and 14 during the study period, with day 0 being the day of administration of the arthritis-inducing monoclonal antibody cocktail. Observation of general condition was made on a daily basis.
Mice were weighed on the day prior to start of administration and randomly assigned to groups using a grouping software, so that the average body weight values of the groups were approximately equal. To twenty 7-week-old mice, the arthritis-inducing monoclonal antibody cocktail was intravenously administered at a dose of 2 mg/mouse on day 0, and LPS was intraperitoneally administered at a dose of 50 μg/mouse on day 3.
Each peptide solution was given via intraperitoneal administration twice a day, morning and afternoon, from day 0. As a control, a 0.5% solution of methyl cellulose was intraperitoneally administered twice a day from day 0. A needle (26G; Terumo) and a syringe (1.0-ml capacity; Terumo) were used for administration. […]
Results of examinations were expressed by mean value±standard error and analyzed using EXSAS (Version 7.1.6, Arm Systex Co., Ltd.). […]

In test [2] the test system is type III allergic (Arthus) reaction-induced rats. The test is described as follows: Immune-complex disease suppression in type III allergic (Arthus) reaction-induced rats, Part 1. It counts as in vivo. As to the method:
Using sixty-four 7-week-old male Slc:Wistar rats, examinations were made on peptides R1, R2, and R5, in two series of examinations, each using a different method of administration (intraperitoneal administration and tail vein administration). Acclimation was carried out by giving normal solid chow CRF-1 for a period of 9 days or longer. The back of the animals was shaved on the day prior to administration, and a mixed solution of OVA and Evans blue dye was administered into the tail vein on the day of administration. Each peptide solution was administered intraperitoneally or into the tail vein 30 minutes or 50 minutes after the administration of the mixed solution of OVA and Evans blue dye, respectively. For intracutaneous administration of an anti-OVA solution, […] was intracutaneously administered in the back of animals at a dose of 0.1 ml/site 30 minutes or 10 minutes after the administration of the tested substance in the case of intraperitoneal or intravenous administration, respectively, so as to generate a local Arthus reaction. After the reaction was allowed to be generated for 4 hours, the animals were euthanized, the blood was removed thoroughly, and then the dorsal skin was exfoliated. The Arthus reaction sites on the exfoliated skin were punched out, and the Evans blue dye was extracted from the punched skin overnight. The amount of dye leakage was quantified by measuring absorbance for the Evans blue dye with a spectrophotometer and using a calibration curve (see, H. Okamoto, Y. Iwahisa, and M. Terasawa, “Suppression of the Arthus reaction by Y-24180, a potent and specific antagonist of platelet-activating factor”, Agents Actions, 35:149-158 (1992), for experimental procedures used in Example 4).
A predetermined amount of each peptide (peptides R1, R2, and R5) was dissolved in physiological saline to make a 20 mg/ml solution. A 2 mg/ml solution was prepared by diluting the 20 mg/ml solution 10-fold with physiological saline. A 5 mg/ml solution was prepared by dissolving each peptide in a predetermined amount in physiological saline to make a prepared solution.
A mixed solution of OVA and Evans blue dye was administered into the tail vein at a dose of 2 ml/kg. Each peptide solution was administered intraperitoneally or into the tail vein 30 minutes or 50 minutes after the administration of the mixed solution of OVA and Evans blue dye, respectively. For intracutaneous administration of an anti-OVA solution, […] was intracutaneously administered in the back of animals at a dose of 0.1 mL/site 30 minutes or 10 minutes after the administration of the tested substance in the case of intraperitoneal or intravenous administration, respectively, so as to generate a local Arthus reaction. Intracutaneous administration was conducted at 2 sites for PBS and at 2 sites for the anti-OVA solution per animal. After the reaction was allowed to be generated for 4 hours, the animals were euthanized by decapitation under ether anesthesia, the blood was removed thoroughly, and then the dorsal skin was exfoliated. The Arthus reaction sites on the exfoliated skin were punched out and subjected to dye extraction.
Several cuttings were made in the skin strips that were punched out with a punch. […] The amount of dye leakage was calculated from a calibration curve of known amounts of the dye.
The mean value (mean)±standard deviation (SD) for each group was calculated with body-weight measurements and amounts of dye leakage. […]

Test [3] concerns Cy3-labeled goat anti-mouse immunoglobulin (IgG). The test can be described thus: Peptide array of C1q subunit 15-mers probed with Cy3-labeled immunoglobulin. It counts as binding. Conditions: peptide spots on glass array, 4° C., 12 hours, background fluorescence intensity is 2.6. An excerpt:
The amino acid sequences of the A, B, and C subunit chains of human C1q, are shown in SEQ ID NOs: 17 to 19, and the nucleotide sequences in SEQ ID NOs: 20 to 22. Based on each of the amino acid sequences, sequences having 15 amino acids (residues) from each subunit and shifted at intervals of three amino acids, were synthesized on a glass array as synthetic peptides (Peptide Nos. 1 to […], and 193 to 270 for the A, B, and C chains, respectively). The synthesis of each peptide was carried out at a specific location on the array, so as to prepare a peptide array which included the synthetic peptides covering the entire amino acid sequences of the subunits of C1q. The preparation of the array was outsourced to JPT Peptide Technologies GmbH.
To the peptide array was applied 330 μl of an Cy3-labeled goat anti-mouse immunoglobulin (IgG) (1 mg/ml; Zymed Laboratories) diluted 1000-fold with PBS (10 mM phosphate buffer, pH 7.0, 0.1 M NaCl), and the array was sealed and then incubated at 4° C. for 12 hours. After that, the array was washed once with methanol and then 5 times with Milli-Q water for 5 minutes each. The array slide was centrifuged and dried, and scanned with a fluorescence scanner (Agilent DNA microarray scanner; Agilent Technologies), so that fluorescence intensity was quantified at the respective peptide spots on the array using a software (Feature Extraction software; Agilent Technologies). Several spots displaying strong fluorescence intensities were detected. […] Note that in the description, the amino acids are denoted by the one-letter code known in the art.

Test [4] concerns Monoclonal antibody cocktail-induced arthritis mice. The test is described as follows: Arthritis suppressing effects on arthritis-induced mice, Part 4. It counts as in vivo. As to conditions: intraperitoneal 100 mg/kg once a day from day 4; methotrexate 0.1 mg/kg. Here is the method: Monoclonal antibody cocktail-induced arthritis mice were used to examine arthritis suppressing effects of peptides which are indicated as R13 in the section (3) in Example 2 and as R19 and R21 in the section (4) in Example 2. Arthritis was caused by intravenous administration of 2 mg/mouse of an arthritis-inducing monoclonal antibody cocktail and three days later, intraperitoneal administration of 50 μg/mouse of LPS. The peptides […] days from four days after the administration of the arthritis-inducing monoclonal antibody cocktail, and arthritis suppressing effect was examined in terms of clinical score and hind-limb volume determination.
The required amount was calculated for each peptide, based on the animal weight. […]
Measurement of body weight of animals was made on days 0, 3, 6, 9, 12, and 14 during the study period, with day 0 being the day of administration of the arthritis-inducing monoclonal antibody cocktail. Observation of general condition was made on a daily basis. […]
Results of examinations were expressed by mean value±standard error and analyzed using EXSAS (Version 7.1.6, Arm Systex Co., Ltd.). […] Quantitative data, such as body weights and leg volumes, were subjected to Bartlett's test, followed by Dunnett's multiple comparison test when the variance was uniform or Steel's multiple comparison test when the variance was not uniform.

In test [5] the target is Cy3-labeled goat anti-mouse immunoglobulin (IgG) (goat). The test is described as follows: peptide array on glass, Cy3-labelled goat anti-mouse IgG, fluorescence scanner; background 2.6.
[6] abbreviates: intraperitoneal administration, 10 or 100 mg/kg.
[7] abbreviates: tail vein administration, 10 mg/kg.

“Also recorded” adds a separate entry of the source. Non-standard residues stand in square brackets, D forms with d. No end group written: not given here.

On to “CKVPGLYYF (Immunoglobulin binding peptide) [R2]”, for which the “arthritis suppressing effect (clinical score)” value in test [1] was “Arthritis suppressing effects were observed; also recorded: arthritis was suppressed”. The “effect of immune-complex disease suppression (dye leakage)” value was “clear and satisfactory effects of immune-complex disease suppression; also recorded: suppressed” in test [2] (setting [6]); “clear and satisfactory effects of immune-complex disease suppression; also recorded: suppressed” in test [2] (setting [7]).

Consider “CKVPGLYYFVYHASH (Immunoglobulin binding peptide) [R6]”, for which the Fluorescence intensity in test [3] is listed as 65,313. As for “FTCKVPGLYYFTYHA (Immunoglobulin binding peptide) [R4]”, in test [3], the Fluorescence intensity is on record as 65,311. For the molecule “KFTCKVPGLYYFVYH (Immunoglobulin binding peptide) [compound 245]”, in test [3], the Fluorescence intensity is on record as 65,311. Take “PGLYYF (Immunoglobulin binding peptide) [R1]”: the “arthritis suppressing effect (clinical score)” value in test [1] was “Arthritis suppressing effects were observed; also recorded: arthritis was suppressed”. The “effect of immune-complex disease suppression (dye leakage)” value in test [2] (setting [6]) is “clear and satisfactory effects of immune-complex disease suppression; also recorded: suppressed”; in test [2] (setting [7]) it was “clear and satisfactory effects of immune-complex disease suppression; also recorded: suppressed”. For “SGKFTCKVPGLYYFT (Immunoglobulin binding peptide) [R3]”, in test [3], the Fluorescence intensity is on record as 65,300. For “dSdTGdKdFdTdSdKdVdPGdLdYdYdF ([dS][dT]G[dK][dF][dT][dS][dK][dV][dP]G[dL][dY][dY][dF]) [R21]”, the “arthritis-suppressing effect (clinical score) compared with methotrexate” value in test [4] was “arthritis-suppressing effect comparable to or greater than that of methotrexate”.

B1: peptide R4 (…) (peptide)
peptide: FTCKVPGLYYFTYHA
For the molecule B1, the Fluorescence intensity in test [5] came to 65300.

B2: peptide R5 (…) (peptide)
peptide: STGKFTCKVPGLYYF
With B2, the Fluorescence intensity in test [5] is 65300.

B3: Peptide No. 245 (…) (peptide)
peptide: KFTCKVPGLYYFVYH
As to B3, in test [5], the Fluorescence intensity came out at 65300.

B4: peptide R3 (…) (peptide)
peptide: SGKFTCKVPGLYYFT
With B4, the Fluorescence intensity in test [5] is 65300.

B5: peptide R6 (…) (peptide)
peptide: CKVPGLYYFVYHASH
In test [5], B5 returned a Fluorescence intensity of 65300.
